Results published in the Kinase Knowledgebase extract (Sharma et al. 2016).
Where “and” joins values, the source holds several entries; their conditions need not be identical. Equal values may be shown once.

Legend:
MAPK14 (rat) [1] = assay: Secondary Paw Swelling Inhibition (Arthritis Rat)
MAPK14 (human) = MAPK14 (human) (UniProt Q16539); assay: LPS-induced TNF-alpha Release Inhibition (Human Blood)
MAPK14 (rat) [2] = tested on: MAPK14 (rat)
MAPK14 = MAPK14 (UniProt Q16539); assay: p38-alpha Kinase Inhibition
Chain of MAPK14 (Q16539 whole entry, looked up): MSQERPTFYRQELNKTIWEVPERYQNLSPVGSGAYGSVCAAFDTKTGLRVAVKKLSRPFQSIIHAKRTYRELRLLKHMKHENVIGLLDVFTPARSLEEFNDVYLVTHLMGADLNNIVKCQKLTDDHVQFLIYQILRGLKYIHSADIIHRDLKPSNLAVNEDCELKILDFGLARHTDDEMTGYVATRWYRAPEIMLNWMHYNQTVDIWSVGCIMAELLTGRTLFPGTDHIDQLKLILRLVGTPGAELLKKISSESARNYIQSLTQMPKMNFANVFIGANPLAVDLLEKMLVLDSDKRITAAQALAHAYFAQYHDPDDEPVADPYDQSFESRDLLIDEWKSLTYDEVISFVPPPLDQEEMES

Chain of MAPK14 (human) (Q16539 whole entry, looked up): as above

| SMILES | IC50 (MAPK14 (human)) | other results |
| --- | --- | --- |
| COc1ccc2c(c1)c(CC(=O)O)c(C)n2C(=O)c1ccc(Cl)cc1 | – | score (MAPK14 (rat) [1]): 5.5 and 4.9 |
| C[C@H](Nc1cc(-c2c(-c3cccc(C(F)(F)F)c3)nc(C3CCNCC3)n2C)ccn1)c1ccccc1 | – | ED50 (MAPK14 (rat) [1]): 8.2 mg/kg/day; inhibition (MAPK14 (rat) [1]; dose or concentration not given here): 76%; ID50 (MAPK14 (rat) [2]): 17.5 mg/kg/day |
| Fc1ccc(-c2nc(C3CCNCC3)[nH]c2-c2ccncc2)cc1 | 175 nM | – |
| Nc1nccc(-c2[nH]c(C3CCNCC3)nc2-c2cccc(C(F)(F)F)c2)n1 | 190 nM | – |
| Fc1ccc(-c2nc(C3CCCNC3)[nH]c2-c2ccncc2)cc1 (stereo not given) | 585 nM | – |
| C[C@H](Nc1nccc(-c2nc(C3CCNCC3)n(C)c2-c2cccc(C(F)(F)F)c2)n1)c1ccccc1 | 24000 nM | – |
| Nc1nccc(-c2[nH]c(-c3ccccc3)nc2-c2ccccc2)n1 | > 100000 nM | – |

Now from value to compound, other results behind:

| IC50 (MAPK14 (human)) | SMILES | other results |
| --- | --- | --- |
| > 100000 nM | CNc1nccc(-c2[nH]c(-c3ccccc3)nc2-c2ccccc2)n1 | – |
| > 100000 nM | FC(F)(F)c1cccc(-c2nc(-c3ccccc3)[nH]c2-c2ccncc2)c1 | – |
| > 100000 nM | COc1ccc(CNc2nccc(-c3[nH]c(-c4ccccc4)nc3-c3ccccc3)n2)cc1 | – |
| 34 nM | Fc1ccc(-c2nc(C3CCCCC3)[nH]c2-c2ccncc2)cc1 | – |
| 290 nM | COc1ccc(CNc2nccc(-c3[nH]c(C4CCNCC4)nc3-c3cccc(C(F)(F)F)c3)n2)cc1 | – |
| > 100000 nM | c1ccc(-c2nc(-c3ccccc3)c(-c3ccncn3)[nH]2)cc1 | – |
| 6 nM | C[C@H](Nc1nccc(-c2[nH]c(-c3ccccc3)nc2-c2cccc(C(F)(F)F)c2)n1)c1ccccc1 | IC50 (MAPK14): 0.75 nM |
| > 10000 nM | Fc1ccc(-c2nc[nH]c2-c2ccncc2)cc1 | – |
| 0.4 nM | C[C@@H](Nc1nccc(-c2[nH]c(-c3ccccc3)nc2-c2cccc(C(F)(F)F)c2)n1)c1ccccc1 | IC50 (MAPK14): 0.97 nM |
